The results in this text go back to patent publication US20240114902A1, “COMPOSITIONS AND METHODS FOR DETERRING OVIPOSITION BY FRUIT FLIES” (The United States of America, as represented by The …, priority 2022, published 2024).

The test system of assay [1] is melon fly (Zeugodacus cucurbitae). As to the kind of experiment: Additional fatty acids: melon fly two-choice oviposition bioassay on pumpkin juice agar. Type of assay: in vivo. Particulars: 20 mg, 24 hours. The protocol: (§1) Oviposition bioassays were conducted using laboratory two-choice cage experiments with pumpkin juice-infused agar (for Melon fly) and guava juice-infused agar (for OFF) as oviposition substrate. The agar plates were prepared by pouring 10 mL of boiled agar mixture [1000 mL distilled water, 500 mL pumpkin or guava juice, 10 g agar, 0.6 g methylparaben, 6.7 mL 95% ethanol, and 3 mL acetic acid] into a small petri dish (60 mm×15 mm). The agar was then covered with a lid to avoid desiccation. The two-choice oviposition bioassay was conducted in screened cages using 20 mated melon fly or OFF females per cage (14-18 day-old; Jang et al.; Supra) over 24 hours. Each cage was provided with a ball of water-saturated cotton and sugar+protein hydrolysate mixture in separate 30 mL deli cups, and two agar plates-one treated with one of the test compounds (C4:0 (Butyric acid), C5:0 (Valeric acid), C6:0 (Caproic acid), C7:0 (Enanthic acid), C9:0 (Pelargonic acid), C11:0 (Undecylic acid), C13:0 (Tridecylic acid), C15:0 (Pentadecylic acid), C17:0 (Margaric acid), or C19:0 (Nonadecylic acid)) diluted in ethanol and the other treated with the ethanol which served as a control. The agar plates were surface-treated either with 200 μL of ethanol (control) or 200 μL of one of tested compounds diluted at 20 mg/200 μL of ethanol, placed into a fume hood for 10 minutes to evaporate solvents prior to be used in bioassays, and positioned upside-down (i.e. treated side down) on the center of the outside top of the screened cage 17 cm apart from each other (i.e. one each of control and treated), allowing female flies to oviposit on pumpkin (for melon fly) or guava juice (for OFF) agar from the bottom through the cage screen. After 24 hours, melon fly and OFF eggs in the agar were gently separated from the agar in water and the number of eggs were individually counted. The experiment was replicated five times per treatment.

The subject of another assay is oriental fruit fly (OFF). As to the kind of experiment: Additional fatty acids: OFF two-choice oviposition bioassay on guava juice agar, 24 hours. The class given is in vivo, Bactrocera dorsalis. Conditions: individual compound, 20 mg dose. As for the experimental part: as §1
A further assay deals with Bactrocera dorsalis. Put plainly: B. dorsalis spatial deterrence, two-choice traps baited with guava juice. The class given is in vivo. Particulars: tested individually. The protocol: In addition to CFA, a series of odd-numbered carbon fatty acids (C9:0 to C17:0) and fatty acid methyl esters were evaluated for the spatial deterrence to B. dorsalis that results in oviposition reduction. Table 3 below lists the fatty acid methyl esters tested for spatial repellency for Bactrocera dorsalis. […] FIG. 16A, FIG. 16C, FIG. 16E, FIG. 16G, FIG. 16I, FIG. 16K, FIG. 16M, FIG. 16O, FIG. 16Q, and FIG. 16S show the mean numbers (±SEM) of mated female B. dorsalis flies captured, and FIG. 16B, FIG. 16D, FIG. 16F, FIG. 16H, FIG. 16J, FIG. 16L, FIG. 16N, FIG. 16P, FIG. 16R, and FIG. 16T show the number of B. dorsalis eggs oviposited in traps baited with guava juice (control) and with guava juice plus one of the coconut fatty acid methyl ester compounds in two-choice bioassays. For each test, different letter on the bar indicate a significant difference by Tukey-Kramer tests at P<0.05, n=4.

Another assay concerns Zeugodacus cucurbitae. As to the kind of experiment: Spatial repellency of fatty acid methyl esters, two-choice traps with pumpkin juice. The class given is in vivo. Conditions: 100 μL doses. The source says: The methods used to test the repellency of fatty acid methyl esters for OFF described above were used in this Example, with minor modifications. The only difference was that pumpkin juice was used as attractant in traps. Melon flies used in this study were from melon fly colony at the U.S Pacific Basin Agricultural Research Center in Hilo, Hawaii, which were maintained on a standard larval diet containing wheat, sugar, and yeast (Tanaka at al., Supra). Chemicals tested were C8:0ME (Methyl octanoate), C10:0ME (Methyl decanoate), C12:0ME (Methyl laurate), C14:0ME (Methyl tetradecanoate), C16:0ME (Methyl palmitate), C18:0ME (Methyl stearate), C18:1ME (Methyl Oleate), and C18:2 (Methyl linoleate).

Assay [2] concerns Bactrocera dorsalis (OFF). As to the kind of experiment: OFF two-choice cage oviposition bioassay on guava juice-infused agar. The class given is in vivo. Particulars: individual compound, 20 mg/agar. As for the experimental part:
Evaluation of oviposition deterrence of CFA: OFF oviposition bioassays were conducted using laboratory two-choice cage experiments with guava juice-infused agar as an oviposition substrate. The agar plates were prepared by pouring 30 mL of boiled agar mixture [1000 mL distilled water, 500 mL guava juice (Deans Foods, El Paso, Texas, USA), 10 g agar, 0.6 g methylparaben, 6.7 mL 95% ethanol, and 3 mL acetic acid] into a 30 mL deli plastic cup to gel. The agar was then covered with a lid to avoid desiccation. The two-choice oviposition bioassay was conducted in screened cages using 20 mated OFF females per cage (12-18 day-old; Jang E B et al., 1997, “Attraction of female oriental fruit fly, Bactrocera dorsalis, to volatile semiochemicals from leaves and extracts of a non-host plant, Panax (Polyscias guilfoylei) in laboratory and olfactometer assays,” J. Chem. Ecol. 23:1389-1401) over 3 days. Each cage was provided with a ball of water-saturated cotton, sugar, and protein hydrolysate in separate 30 mL deli cups and two guava juice agar plates-one treated with CFA diluted in hexane and the other treated with the hexane control. The agar plates were surface-treated either with 200 μL of hexane or 200 μL of CFA in one of 4 doses tested (20, 2, 0.2, and 0.02 mg/200 μL of hexane), placed into a fume hood for 10 minutes prior to use in bioassays, and positioned upside-down (i.e., treated side down) on the center of the outside top of the screened cage 17 cm apart from each other (i.e., one each of control and CFA treated), allowing female flies to oviposit on guava juice agar from the bottom through the cage screen. After three days, OFF eggs in the guava agar were gently separated from the agar in water and the number of eggs were individually counted (up to 100 eggs) or estimated volumetrically at 1 mL OFF eggs=20,000 eggs (Stephanie Gayle personal communication). The experiment was replicated six times per treatment. Determination of bioactive oviposition deterrent components from CFA: A series of bioassays was conducted to identify key deterrent components of CFA for OFF using the same two-choice bioassay design described above. […] Ethanol was used as control and for preparing dilutions of C16:0 and C18:0. Hexane was used as control and for dilutions of the other six compounds tested. Based on the outcome of these bioassays, the eight free fatty acid components were assigned to “OFF negative” (i.e., oviposition reduced), “OFF neutral” (i.e., no effect on oviposition), and “OFF positive” (i.e., oviposition increased) compound groups. Using these groupings, four different blends were formulated (indicated in Table 1), composed at the equivalent ratios and concentrations of each component found in CFA (Zhu J J et al., 2018, supra), to determine key bioactive CFA components in terms of oviposition deterrence on OFF. The approach involved testing the bioactivity of the OFF negative-component blend (4c blend) for oviposition deterrence at three different doses (2, 0.2, and 0.02 mg CFA equivalent/agar), first comparing with hexane control, then with CFA at respective equivalent doses. As the 4c blend was not as effective as CFA, a “OFF negative+OFF neutral” component blend (6c blend) was then formulated, and its effect compared with CFA at 2 and 0.2 mg CFA equivalent/agar. Two subtraction blends with one of the two OFF neutral components removed from the 6c blend (5c-i and 5c-ii blends) were formulated and compared with the 6c blend at 2 and 0.2 mg CFA equivalent/agar. The experiment was replicated four to six times per treatment.

On to `CCCC(=O)O` [C4:0, Butyric acid], for which the “effect on melon fly oviposition vs control” value in assay [1] was “did not affect melon fly oviposition”. Besides, in the assay with oriental fruit fly (OFF), the “effect on OFF oviposition” value is recorded as “did not affect OFF oviposition”.
As for `CCCCC(=O)O` [C5:0, Valeric acid], the “fewer melon fly eggs on treated pumpkin juice agar vs control agar” value in assay [1] was found to be 72.5%. In addition, the “effect on OFF oviposition” value in the assay with oriental fruit fly (OFF) is on record as “did not affect OFF oviposition”.
In the case of `CCCCCC(=O)O` [C6:0, Caproic acid], the “effect on melon fly oviposition vs control” value in assay [1] is recorded as “increased melon fly oviposition”. Moreover, the “effect on OFF oviposition” value in the assay with oriental fruit fly (OFF) is on record as “did not affect OFF oviposition”.
Take `CCCCCCC(=O)O` [C7:0, Enanthic acid]: the “effect on female B. dorsalis attraction and oviposition to host fruit odors” value (from here on “effect … to host fruit odors”) in the assay on Bactrocera dorsalis is listed as “significantly reduced”. The “effect on melon fly oviposition vs control” value in assay [1] is given as “increased melon fly oviposition”. For the same compound, in the assay on oriental fruit fly (OFF), the “effect on OFF oviposition” value is “did not affect OFF oviposition”.
Turning to `CCCCCCCC(=O)OC` [C8:0 ME, Methyl caprylate], in the assay with Bactrocera dorsalis, the “effect … to host fruit odors” value is given as “significantly reduced”. Besides, the “fewer Z. cucurbitae captured in traps baited with FAME vs control” value (shortened to “fewer Z. cucurbitae captured … vs control”) in the assay on Zeugodacus cucurbitae is recorded as 97.1%.
Regarding `CCCCCCCCC(=O)O` [C9:0, Pelargonic acid], the “effect on OFF oviposition vs control agar” value in assay [2] is recorded as “significantly reduced”. For the same compound, in the assay with Bactrocera dorsalis, the “effect … to host fruit odors” value is “significantly reduced”. The “effect on melon fly oviposition vs control” value in assay [1] was “did not affect melon fly oviposition”.
Take `CCCCCCCCCC(=O)OC` [C10:0 ME, Methyl caprate]: the “effect … to host fruit odors” value in the assay with Bactrocera dorsalis is recorded as “significantly reduced”. The “fewer Z. cucurbitae captured … vs control” value in the assay on Zeugodacus cucurbitae came out at 76.0%.
As to `CCCCCCCCCCC(=O)OC` [C11:0 ME, Methyl undecanoate], in the assay on Bactrocera dorsalis, the “effect … to host fruit odors” value is on record as “significantly reduced”.
For `CCCCCCCCCCCC(=O)OC` [C12:0 ME, Methyl laurate], the “effect … to host fruit odors” value with Bactrocera dorsalis was “significantly reduced”. For the same compound, the “fewer Z. cucurbitae captured … vs control” value in the assay with Zeugodacus cucurbitae worked out at 55.5%.
With `CCCCCCCCCCCCC(=O)OC` [C13:0 ME, Methyl tridecanoate], the “effect … to host fruit odors” value with Bactrocera dorsalis was “significantly reduced”.
For the compound `CCCCCCCCCCCCC(=O)O` [C13:0, Tridecylic acid], the “effect on OFF oviposition vs control agar” value in assay [2] was “significantly reduced”. For the same compound, the “fewer melon fly eggs on treated pumpkin juice agar vs control agar” value in assay [1] is listed as 75.7%.
Regarding `CCCCCCCCCCCCCC(=O)OC` [C14:0 ME, Methyl myristate], the “effect on melon fly behavior” value with Zeugodacus cucurbitae is “did not affect melon fly behavior”.
Consider `CCCCCCCCCCCCCCC(=O)OC` [C15:0 ME, Methyl pentadecanoate], for which the “effect … to host fruit odors” value with Bactrocera dorsalis is on record as “significantly reduced”.
Regarding `CCCCCCCCCCCCCCC(=O)O` [C15:0, Pentadecylic acid], in assay [1], the “effect on melon fly oviposition vs control” value was “increased melon fly oviposition”.
`CCCCCCCCCCCCCCCC(=O)OC` [C16:0 ME, Methyl palmitate]: in the assay on Zeugodacus cucurbitae, the “effect on melon fly behavior” value was “did not affect melon fly behavior”.
Regarding `CCCCCCCCCCCCCCCCC(=O)O` [C17:0, Margaric acid], the “effect on melon fly oviposition vs control” value in assay [1] was “increased melon fly oviposition”.
Turning to `CCCCCCCCCCCCCCCCCC(=O)OC` [C18:0ME, Methyl stearate], the “effect on melon fly behavior” value in the assay with Zeugodacus cucurbitae is “did not affect melon fly behavior”.
As to `CCCCCCCC/C=C\CCCCCCCC(=O)OC` [C18:1ME, Methyl Oleate], in the assay on Zeugodacus cucurbitae, the “fewer Z. cucurbitae captured … vs control” value is on record as 91.8%.
Regarding `CCCCC/C=C\C/C=C\CCCCCCCC(=O)OC` [C18:2ME, Methyl linoleate], the “effect on melon fly behavior” value in the assay with Zeugodacus cucurbitae is “did not affect melon fly behavior”.
Consider `CCCCCCCCCCCCCCCCCCC(=O)O` [C19:0, Nonadecylic acid], for which, in assay [1], the “effect on melon fly oviposition vs control” value is on record as “did not affect melon fly oviposition”.
